Assays:
endometriotic tissue = assay: Surgically induced endometriosis (autotransplanted endometrial fragments) in cynomolgus monkeys, laparoscopy; type: in vivo, Macaca fascicularis; details: for Endometriotic lesion diameter: control 11.4±1.6
From the text: Numerous animal models of endometriosis have been developed involving rabbits (Rock, J A et al., Intraocular endometrium in the rabbit as a model for endometriosis, Fertil. Steril. 59:232-35 [1993]), rodents (Sakura, Y et al., Histological studies on the therapeutic effect of sustained-release microspheres of a potent LHRH agonist (leuprorelin acetate) in an experimental endometriosis model in rats, Endocrinol. Jpn. 37:719-729 [1990]; Rajkumar, K et al., The rat as an animal model for endometriosis to examine recurrence of ectopic endometrial tissue after regression, Fertil. Steril. 53:921-25 [1990]; Sudo, K et al., Effects of TAP-144-SR, a sustained-release formulation of a potent GnRH agonist, on experimental endometriosis in the rat, Endocrinol. Jpn. […] Gynecol. […] Steril. […] An. Sci. 33 :P15 [1994]; Cummings, A M and Metcalf, J L, Induction of endometriosis in mice: a new model sensitive to estrogen, Reprod. Toxicol. 9:233-38 [1995]; Cummings, A M et al., Promotion of endometriosis by 2,3,7,8-tetrachlorodibenzo-p-dioxin in rats and mice: time-dose dependence and species comparison, Toxicol. Appl. Pharmacol. 138:131-39 [1996]; Foster, W G et al., Morphologic characteristics of endometriosis in the mouse model: application to toxicology, Can. J. Physiol. Pharmacol. 75:1188-96 [1997]; Aoki, D et al., Successful heterotransplantation of human endometrium in SCID mice, Obstet. Gynecol. 83:220-28 [1994]; Bruner, K L et al., Suppression of matrix metalloproteinases inhibits establishment of ectopic lesions by human endometrium in nude mice, J. Clin. Invest. 99:2851-57 [1997]), and non-human primates (Schenken, R S et al., Etiology of infertility in monkeys with endometriosis: luteinized unruptured follicles, luteal phase defects, pelvic adhesions, and spontaneous abortions, Fertil. Steril. 41:122-30 [1984]; Rier, S E et al., Endometriosis in rhesus monkeys (Macaca mulatta) following chronic exposure to tetrachlorodibenzo-p-dioxin, Fund. Appl. Toxicol. 21:433-41 [1993]; D'Hooghe, T D et al., Development of a model of retrograde menstruation in baboons (Papio anubis), Fertil. Steril. 62:635-38 [1994]). […] Therefore, a non-human primate model was selected, because monkeys and baboons spontaneously develop endometriosis, the pathophysiology of the disease resembles humans and abundant tissue can be obtained for study purposes. In particular, nulliparous female cynomolgus monkeys (Macaca fascicularis) were the animals chosen.
The effects of subchronic exposure to an AhR binding ligand was examined in a non-human primate model. Endometrial fragments were surgically autotransplanted to the pelvic cavity of nulliparous cynomolgus monkeys (Macaca fascicularis, n=23). Briefly, each monkey's own endometrial tissue was obtained during a laparotomy in which the body of the uterus was opened in the anterior midline. A strip of endometrium was removed by careful dissection and divided into a number of equal pieces, one of which was used for histopathology to confirm the presence of both endometrial epithelium and stroma. […]
The monkeys were divided into 4 treatment groups and dosed five days a week with gelatin capsules containing 0, 1, 5 or 25 ng/kg body mass of AhR binding ligand 2,3,7,8-tetrachlorodibenzo-p-dioxin (TCDD), mixed with glucose. Endometriotic implant survival and diameter were monitored by laparoscopy at intervals of one, three, six and 12 months.

endometriosis = details: rodents and monkeys; cited from earlier work
[1] = target: T1, aryl hydrocarbon receptor (Homo sapiens, UniProt P35869); details: in culture; cited from earlier work
T1 sequence (P35869 11-848): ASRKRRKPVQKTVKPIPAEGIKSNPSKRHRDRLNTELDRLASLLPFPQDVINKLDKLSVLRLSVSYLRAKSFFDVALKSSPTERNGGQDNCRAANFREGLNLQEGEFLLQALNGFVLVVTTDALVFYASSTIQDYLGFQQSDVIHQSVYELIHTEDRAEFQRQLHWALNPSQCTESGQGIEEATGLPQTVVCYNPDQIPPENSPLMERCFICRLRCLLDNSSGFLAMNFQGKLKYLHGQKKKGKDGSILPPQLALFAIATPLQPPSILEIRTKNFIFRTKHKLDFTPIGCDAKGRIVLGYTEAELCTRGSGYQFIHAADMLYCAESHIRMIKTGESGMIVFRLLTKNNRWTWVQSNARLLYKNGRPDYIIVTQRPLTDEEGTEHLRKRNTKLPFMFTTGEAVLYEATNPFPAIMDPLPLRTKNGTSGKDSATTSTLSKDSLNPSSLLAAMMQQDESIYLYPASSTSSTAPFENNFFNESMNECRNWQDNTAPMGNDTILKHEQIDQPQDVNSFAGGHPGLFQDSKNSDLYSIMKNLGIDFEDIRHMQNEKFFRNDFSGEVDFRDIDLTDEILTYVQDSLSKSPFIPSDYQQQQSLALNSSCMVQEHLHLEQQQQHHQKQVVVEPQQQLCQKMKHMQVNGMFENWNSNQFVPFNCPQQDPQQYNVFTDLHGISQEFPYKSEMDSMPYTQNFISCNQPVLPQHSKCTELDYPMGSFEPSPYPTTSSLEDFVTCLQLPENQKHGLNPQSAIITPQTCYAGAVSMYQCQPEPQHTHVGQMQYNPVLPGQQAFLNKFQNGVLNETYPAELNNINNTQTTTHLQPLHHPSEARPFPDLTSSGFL

estrogen metabolites = details: oral administration, women; cited from earlier work
uterus = details: animal experiment; cited from earlier work

## Clc1cc2c(cc1Cl)Oc1cc(Cl)c(Cl)cc1O2 [TCDD, 2,3,7,8-tetrachlorodibenzo-p-dioxin]
Endometriotic tissue; 0.71 ng/kg/day TCDD, oral gelatin capsules
  Endometriotic lesion diameter: 4.2±0.9 mm
Endometriotic tissue; 0.71 ng/kg/day TCDD, oral, control 16%
  Endometriotic lesion survival rate: 20%
Endometriotic tissue; 3.57 ng/kg/day TCDD for one year, oral, control 16.0%
  Endometriotic lesion survival rate: 26.7%
Endometriotic tissue; 17.86 ng/kg/day TCDD for one year, oral
  Endometriotic lesion diameter: 14.5±0.2 mm
Endometriotic tissue; 17.86 ng/kg/day TCDD for one year, oral, control 16.0%
  Endometriotic lesion survival rate: 33.3%
endometriosis
  Effect on endometriosis: promoted endometriosis

## NCCc1c[nH]c2ccccc12 [tryptamine]
[1]
  Binding to and activation of aryl hydrocarbon receptor: bind to and activate

## OCc1c[nH]c2ccccc12 [indole-3-carbinol]
Estrogen metabolites
  Levels of estrogen metabolites: reduce levels of estrogen metabolites

## Fc1ccc2[nH]cc(Cc3c[nH]c4ccccc34)c2c1 [5-fluoro-diindolylmethane]
uterus
  Uterine wet weight as a percentage of body weight: increase

## N[C@@H](Cc1c[nH]c2ccccc12)C(=O)O [tryptophan]
[1]
  Binding to and activation of aryl hydrocarbon receptor: bind to and activate
